The values below come from US8178512B2, “Methods and compositions for treating diseases and disorders associated with siglec-8” (Johns Hopkins University, priority 2004, dated 2012).

Experiment [1] deals with T1, Siglec-8-Ig fusion protein (Homo sapiens, UniProt Q9NYZ4).
T1 construct: The extracellular domain of Siglec-8 was inserted in frame with a Factor Xa cleavage site and the Fc portion of human IgG1; made in house; host or cells: CHOEA1 cells (electroporated), purified from supernatants on Protein A Sepharose
T1 sequence (Q9NYZ4 17-363 limits assumed): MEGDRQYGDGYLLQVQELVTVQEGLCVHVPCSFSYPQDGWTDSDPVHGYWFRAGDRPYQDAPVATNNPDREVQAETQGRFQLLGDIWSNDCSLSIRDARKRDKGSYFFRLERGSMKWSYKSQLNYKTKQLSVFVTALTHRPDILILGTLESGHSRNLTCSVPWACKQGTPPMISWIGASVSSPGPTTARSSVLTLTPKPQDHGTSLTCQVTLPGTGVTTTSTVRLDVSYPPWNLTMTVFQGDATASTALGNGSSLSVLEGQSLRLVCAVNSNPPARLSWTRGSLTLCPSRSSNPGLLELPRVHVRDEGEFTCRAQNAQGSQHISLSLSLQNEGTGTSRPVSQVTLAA
The experiment in a line: Glycan array screening: Siglec-8-Ig binding to biotinylated glycosides on streptavidin-coated 384-well plates. The conditions noted are these: 172 structures screened. Here is the method: (§1) The extracellular domain of Siglec-8 was inserted in frame with a Factor Xa cleavage site and the Fc portion of human IgG1, expanded in electroporated CHOEA1 cells, and then purified from supernatants (final concentration: 2.4 mg/ml) using Protein A Sepharose as previously described (Kikly, K. K., Bochner, B. S., Freeman, S., Tan, K. B., Gallagher, K. T., D'Alessio, K., Holmes, S. D., Abrahamson, J., Hopson, C. B., Fischer, E. I., Erickson-Miller, C. L., Tachimoto, H., Schleimer, R. P., and White, J. R. (2000) J. Allergy Clin. Immunol. 105, 1093-1100).
Biotinylated glycosides (Korchagina, E., and Bovina, N. V. (1992) Bioorg Khim 18, 283-298) were coated in replicates of n=3 or n=4 on streptavidin-coated microtiter plates (Pierce Reacti-Bind™ NeutrAvidin™ Coated High Binding Capacity Black 384-Well Plates, Product #15513, Rockford, Ill.). Each well was incubated overnight at 4° C. with 30 pmol/well of glycoside in 25 ul phosphate buffered saline (PBS), pH 7.4. The plates were washed three times with 100 ul PBS using an automated plate washer (Molecular Devices, Sunnyvale, Calif.) and stored sealed at 4° C. in 25 ul/well PBS with 0.1% azide until use. Prior to assay, the plates were washed three times with 100 ul/well wash buffer (20 mM Tris-HCl pH 7.4, 150 mM NaCl, 2 mM CaCl2, 2 mM MgCl2 and 0.05% Tween 20). A stock solution of Siglec-8-Ig (30 ug/ml) was added to each well in 25 ul binding buffer (wash buffer plus 1% BSA) and incubated at room temperature for one hour. The plates were washed three times with 100 ul/well wash buffer and incubated for one hour with 25 ul/well goat anti-human IgG-Alexa 488 (Molecular Probes, Cat. No. A11013, Eugene, Oreg.) at 5 ug/ml in binding buffer. The plates were washed and read in 25 ul wash buffer on a Victor 2™ 1420 Multilabel Counter (PerkinElmer Life Sciences, Fremont, Calif.) at excitation 485/emission 535. The current version of the Consortium glycan array can be viewed at:
(http://www.functionalglycomics.org/static/consortium/resources/resourcecoreh.shtml), experiments were initiated to identify compounds that selectively and specifically bind to Siglec-8. Using Siglec-8-Ig fusion protein, a panel of 172 carbohydrate-based structures (see Table 1) was screened for specific Siglec-8 binding. […] The spacer arm itself, —O(CH2)3NH—CO(CH2)5NH-Biotin, found on many of the other non-binding structures, cannot explain the binding activity for Siglec-8.

Experiment [2] has as its target T2, Siglec-8-Ig (Homo sapiens, UniProt Q9NYZ4).
T2 construct: The extracellular domain of Siglec-8 was inserted in frame with a Factor Xa cleavage site and the Fc portion of human IgG1; made in house; host or cells: CHOEA1 cells (electroporated), purified from supernatants on Protein A Sepharose
The experiment in a line: Siglec-8-Ig binding affinity by surface plasmon resonance (SPR), biotinylated glycosides on streptavidin sensor chip. Conditions: for Siglec-8-Ig binding by SPR (in words): LacNAc reference surface; for Siglec-8-Ig binding by SPR (in words) / Kd: SPR; for Kd: 25° C., equilibrium binding, Siglec-8-Ig 0.1-18 uM, read-out: dissociation constant (Kd) of Siglec-8-Ig binding. The method, then: as §1
All SPR experiments were performed at 25° C. on a Biacore 3000 instrument (Biacore Inc., Piscataway, N.J.). Biotinylated glycosides were captured on research grade streptavidin (SA) coated sensor chips (Sensor Chip SA, Biacore) that were pre-treated according to the manufacturer's instructions. A solution of each biotinylated glycoside (10 fmol/μl) was injected at 2 μl/min in PBS (pH 7.4) containing 0.005% Tween-20 (running buffer) for varying lengths of time (3-7 minutes) until an optimal amount of glycan was captured on each independent surface. Three related glycosides were studied using one SA sensor chip. […] Increasing concentrations of Siglec-8-Ig (0.1-18 uM) were injected at a flow rate of 60 μl/min over all four surfaces of the sensor chip. […] The equilibrium binding data of Siglec-8-Ig were analyzed by non-linear curve fitting using the BIAevaluation software (Biacore Inc.).
The binding affinities of Siglec-8 for #108, #182 and #181 (FIGS. 3A-C, respectively) were determined on a Biacore B3000 instrument using a streptavidin-coated sensor chip. LacNAc glycoside was captured on one surface of the sensor chip and used as negative control (data not shown).
Background: Surface plasmon resonance follows binding to a sensor surface in real time, without labels.

Experiment [3] addresses T2, Siglec-8-Ig. In words: Binding of Siglec-8-Ig to aminoalkyl glycosides immobilized on activated (N-hydroxysuccinimidyl) glass surfaces. The conditions noted are these: highest concentration tested 300 pmol/spot. From the text: A description of the printing and evaluation of the full array in this format has been submitted elsewhere (Ola Blixt, Steve Head, Tony Mondala, Christopher Scanlan, Margaret E. Huflejt, Richard Alvarez, Marian C. Bryan, Fabio Fazio, Daniel Calarese, James Stevens, Nahid Razi, David J. Stevens, John J. Skehel, Irma van Die, Dennis Burton, Ian A. Wilson, Richard Cummings, Nicolai Bovin, Chi-Huey Wong, and James C. Paulson ([…]) Proc. Natl. Acad. Sci. USA 101, 17033-17038). FITC-labeled goat anti-human IgG (Fc specific) was from Jackson Immunoresearch (West Grove, Pa.). […]
A solution of 100 μg/ml Siglec-8-Ig and 50 μg/ml FITC-labeled goat anti-human IgG (Fc-specific) in Dulbecco's PBS containing 0.005% Tween 20 was incubated for 30 min at 37° C. to allow complexes to form. […] An image of the bound fluorescence was obtaining using a microarray scanner (ScanArray Express, PerkinElmer Life Sciences, Boston, Mass.). The integrated spot intensities were determined using Metamorph software (Universal Imaging, Downingtown, Pa.). […]

Experiment [4] concerns the target T3, Siglec-F (Mus musculus, UniProt Q920G3).
T3 sequence (Q920G3 17-569): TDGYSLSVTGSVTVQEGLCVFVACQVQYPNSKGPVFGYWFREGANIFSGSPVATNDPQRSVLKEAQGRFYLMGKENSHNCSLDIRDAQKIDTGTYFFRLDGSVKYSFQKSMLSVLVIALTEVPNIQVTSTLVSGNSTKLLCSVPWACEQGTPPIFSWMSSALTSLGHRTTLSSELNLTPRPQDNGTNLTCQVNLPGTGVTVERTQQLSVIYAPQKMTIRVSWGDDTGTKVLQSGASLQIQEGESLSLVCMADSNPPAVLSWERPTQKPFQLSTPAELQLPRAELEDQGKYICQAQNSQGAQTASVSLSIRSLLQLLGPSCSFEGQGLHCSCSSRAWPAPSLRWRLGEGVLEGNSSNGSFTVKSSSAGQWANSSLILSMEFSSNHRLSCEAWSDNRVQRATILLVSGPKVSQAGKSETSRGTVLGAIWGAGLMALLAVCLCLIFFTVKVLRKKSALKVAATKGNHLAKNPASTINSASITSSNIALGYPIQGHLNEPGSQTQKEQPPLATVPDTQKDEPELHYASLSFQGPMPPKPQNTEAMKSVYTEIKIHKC
Conditions: Consortium website; cited from earlier work.

In experiment [5] the test system is Siglec-G-Ig fusion protein. Conditions: Consortium website; cited from earlier work.

Where “and” joins values, the source holds several entries; their conditions need not be identical. Equal entries are not always repeated. Entries after “also recorded” stand apart in the source; their conditions may differ. Where two headings read alike, the source gives them in different places.

T2 sequence (Q9NYZ4 17-363 limits assumed): as the sequence (Q9NYZ4 17-363 limits assumed) above

For the compound `CC(=O)N[C@H]1[C@H](OCCNC(=O)CCCCCNC(=O)CCCCCNC(=O)CCCC[C@@H]2SC[C@@H]3NC(=O)N[C@@H]32)O[C@H](CO)[C@@H](O[C@@H]2O[C@H](CO)[C@H](O)[C@H](O[C@]3(C(=O)O)C[C@H](O)[C@@H](NC(C)=O)[C@H]([C@H](O)[C@H](O)CO)O3)[C@H]2O)[C@@H]1O[C@@H]1O[C@@H](C)[C@@H](O)[C@@H](O)[C@@H]1O` [#108, NeuAcα2-3Galβ1-4(Fucα1-3)GlcNAcβ1-O(CH2)2NHCO(CH2)5NHCO(CH2)5NH-Biotin], the “Siglec-8-Ig binding in glycan array (in words)” value in experiment [1] (listed as sLe^x) is recorded as “failed to bind”. Moreover, the “Siglec-8-Ig binding by SPR (in words)” value in experiment [2] (listed as sLe^x) was “failed to support detectable Siglec-8 binding; also recorded: No binding”. In addition, in experiment [3], the “Siglec-8 binding to glycan immobilized on glass slide (in words)” value was “did not support any Siglec-8 binding”.

Regarding `CC(=O)N[C@H]1[C@H](OCCCNC(=O)CCCCCNC(=O)CCCC[C@@H]2SC[C@@H]3NC(=O)N[C@@H]32)O[C@H](CO)[C@@H](O[C@@H]2O[C@H](COS(=O)(=O)O)[C@H](O)[C@H](O[C@]3(C(=O)O)C[C@H](O)[C@@H](NC(C)=O)[C@H]([C@H](O)[C@H](O)CO)O3)[C@H]2O)[C@@H]1O[C@@H]1O[C@@H](C)[C@@H](O)[C@@H](O)[C@@H]1O` [#181, NeuAcα2-3(6-O-sulfo)Galβ1-4(Fucα1-3)GlcNAcβ1-O(CH2)3NH—CO(CH2)5NH-Biotin], the “Siglec-8-Ig binding in glycan array (in words)” value in experiment [1] was “stands out among all the others for binding activity; also recorded: By far the greatest binding”; in experiment [1] (listed as 6′-sulfo-sLe^x), “avid binding”. The “association and dissociation profiles (in words)” value in experiment [2] (SPR sensorgrams) is “very fast association and dissociation profiles”. The Kd (as a rule, the constant that tells how readily two partners part at equilibrium) in experiment [2] (listed as 6′-sulfo-sLe^x) was 2300 nM and 2200 to 2300 nM; in experiment [2], 2000 to 2500 nM. Also, the “Siglec-8-Ig binding by SPR (in words)” value in experiment [2] was “specific binding”; in experiment [2] (listed as 6′-sulfo-sLe^x), “significant binding; also recorded: reproducible binding”. In experiment [4], the “binding to Siglec-F (in words)” value is “selectively binds”. The “binding to Siglec-G-Ig fusion protein (in words)” value in experiment [5] is “failed to show specific binding”.

Turning to `CC(=O)N[C@H]1[C@H](OCCCNC(=O)CCCCCNC(=O)CCCC[C@@H]2SC[C@@H]3NC(=O)N[C@@H]32)O[C@H](COS(=O)(=O)O)[C@@H](O[C@@H]2O[C@H](CO)[C@H](O)[C@H](O[C@]3(C(=O)O)C[C@H](O)[C@@H](NC(C)=O)[C@H]([C@H](O)[C@H](O)CO)O3)[C@H]2O)[C@@H]1O[C@@H]1O[C@@H](C)[C@@H](O)[C@@H](O)[C@@H]1O` [#182, NeuAcα2-3Galβ1-4(Fucα1-3)(6-O-Su)GlcNAcβ1-O(CH2)3NH—CO(CH2)5NH-Biotin], the “Siglec-8-Ig binding in glycan array (in words)” value in experiment [1] (listed as 6-sulfo-sLe^x) is given as “failed to bind”. Also, in experiment [2] (listed as 6-sulfo-sLe^x), the “Siglec-8-Ig binding by SPR (in words)” value is recorded as “failed to support detectable Siglec-8 binding; also recorded: No binding”. In addition, the “Siglec-8 binding to glycan immobilized on glass slide (in words)” value in experiment [3] is “did not support any Siglec-8 binding”.

As for “Galβ1-4GlcNAc [LacNAc, reference compound]”, in experiment [2], the “Siglec-8-Ig binding by SPR (in words)” value was “non-binding”.
